Marks after values point to notes of the source that are not given here.
Tested on: swine embryos
Test: Progressive development in vitro of swine embryos after cryopreservation by vitrification under the influence of microfilament stabilizer cytochalasin-b
Type: cell-based
Details: for % dev (progressive development in vitro after vitrification) / dev (number of embryos developed in vitro after vitrification): + cytochalasin-b
Experimental: Cyto-b is added to the medium for MF depolymerization. Studies were carried out which documented microfilament (MF) alterations during swine embryo vitrification (Dobrinsky et al. 2000, supra).
Developmental appraisals of the centrifuged cryopreserved embryos were carried out both in vitro and in vivo. For in vitro studies, morulae/blastocysts were cultured for 72 hours post-treatment. After culture, embryos were morphologically evaluated for their developmental progression. […] Since all morulae would have to develop into
Embryos were vitrified as described by Dobrinsky and Johnson (supra) in vitrification medium [6.5M glycerol, 6% bovine serum albumin-V (BSA-V; Sigma Chemical Co., St. Louis, Mo.)]. Prior to cryopreservation, for microfilament depolymerization, embryos were incubated at 39° C. in 5% CO2 and air, 95% humidity for 30-45 min in culture medium containing 7.5 μg/ml cyto-b (Sigma Chemical co., supra; stock=5 mg/ml 95% food grade EtOH). Following incubation in cyto-b, embryos were removed from culture and washed 3 times in 2 ml handling medium with cyto-b for 5 min and then equilibrated in 1 ml handling medium containing 6% BSA-V and cyto-b for 5 min. Embryos were then washed in vitrification equilibration medium (25% glycerol v/v, 6% BSA-V) containing cyto-b, then placed in 20 μl of vitrification equilibration medium containing cyto-b in a 1.5-ml microcentrifuge tube. The tube was placed and counterbalanced in an Eppendorf 5415 microcentrifuge and centrifuged for 13 min at 13,000 rpm. During centrifugation, embryos were dehydrated and equilibrated with glycerol. Total time in vitrification equilibration medium was about 20 min, including the centrifugation time.

C=C1[C@@H](C)[C@H]2[C@H](Cc3ccccc3)NC(=O)[C@]23OC(=O)/C=C/[C@H](O)CCC[C@@H](C)C/C=C/[C@H]3[C@@H]1O [Cytochalasin-b]
% dev (progressive development in vitro after vitrification) (HB1 = hatched blastocysts <400 μm diameter): 90^c;z % | dev (number of embryos developed in vitro after vitrification) (HB1 = hatched blastocysts <400 μm diameter, n 48): 43 | % dev (progressive development in vitro after vitrification) (HB2 = hatched blastocysts >400 μm diameter): 41% | dev (number of embryos developed in vitro after vitrification) (HB2 = hatched blastocysts >400 μm diameter, n 22): 9 | % dev (progressive development in vitro after vitrification) (MB = morulae/early blastocysts): 6^a % | dev (number of embryos developed in vitro after vitrification) (MB = morulae/early blastocysts, n 17): 1 | % dev (progressive development in vitro after vitrification) (XB = expanded blastocysts): 60^b;z % | dev (number of embryos developed in vitro after vitrification) (XB = expanded blastocysts, n 25): 15 | survival and development of expanded and hatched blastocysts after vitrification (expanded and hatched blastocysts, versus control without cyto-b): significantly (p<0.05) improved survival and development | morula/early blastocyst viability after vitrification (morulae/early blastocysts, versus control without cyto-b): did not appear to improve

— patent publication US6503698B1, “Cryopreservation of swine embryos” (The United States of America as represented by the …, priority 2000, dated 2003)
